# Measured values taken from ChEMBL document CHEMBL1201862, “PubChem BioAssay data set” (2004).
#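 Step 1: Grow cells in 96-well plates. Step 2: Expose to compound for 48 hours at 5 concentrations. Step 3: Interpolate endpoints linearly; if unreached, use highest concentration. GI50: concentration for 50% inhibition of growth.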 Calls of active or inactive are those of the source. Rule as the data show it: active = GI50 up to about 1.1 µM and inactive = higher.
# Columns and labels:
# Assay in all cases: growth of human tumour cells (NCI), 48 h
# SN12C = system: SN12C
# MDA-N = system: MDA-N
# NCI-H460 = system: NCI-H460
# SF-539 = system: SF-539
# SK-MEL-2 = system: SK-MEL-2
# SK-MEL-28 = system: SK-MEL-28
# MDA-MB-435 = system: MDA-MB-435
# HOP-62 = system: HOP-62
# KM12 = system: KM12
# NCI-H522 = system: NCI-H522
# HCC 2998 = system: HCC 2998
# NCI-H226 = system: NCI-H226
# T47D = system: T47D
# Hs-578T = system: Hs-578T
# COLO 205 = system: COLO 205
# PC-3 = system: PC-3
# TK-10 = system: TK-10
# SK-MEL-5 = system: SK-MEL-5
# UACC-257 = system: UACC-257
# NCI/ADR-RES = system: NCI/ADR-RES
# SR = system: SR
# OVCAR-5 = system: OVCAR-5
# SNB-75 = system: SNB-75
# SF-295 = system: SF-295
# A498 = system: A498
# DU-145 = system: DU-145
# RPMI-8226 = system: RPMI-8226
# SNB-19 = system: SNB-19
# HT-29 = system: HT-29
# OVCAR-3 = system: OVCAR-3
# SW-620 = system: SW-620
# IGROV-1 = system: IGROV-1
# HL-60 = system: HL-60
# ACHN = system: ACHN
# U-251 = system: U-251
# Malme-3M = system: Malme-3M
# CCRF-CEM = system: CCRF-CEM
# 786-0 = system: 786-0
# HOP-92 = system: HOP-92
# OVCAR-4 = system: OVCAR-4
# M14 = system: M14
# OVCAR-8 = system: OVCAR-8
# NCI-H23 = system: NCI-H23
# LOX IMVI = system: LOX IMVI
# HCT-15 = system: HCT-15
# K562 = system: K562
# RXF 393 = system: RXF 393
# SF-268 = system: SF-268
# CAKI-1 = system: CAKI-1
# MDA-MB-231 = system: MDA-MB-231
# UO-31 = system: UO-31
# EKVX = system: EKVX
# UACC-62 = system: UACC-62
# SK-OV-3 = system: SK-OV-3
# BT-549 = system: BT-549
# HCT-116 = system: HCT-116
# MCF7 = system: MCF7
# MOLT-4 = system: MOLT-4
# A549 = system: A549
smiles,measurement,setting,value
Cn1c(=O)c2nc3c(=O)n(C)c(=O)n(CC(N)=O)c3nc2n(C)c1=O,GI50,SN12C,> 100 µM (inactive)
same,GI50,MDA-N,> 100 µM (inactive)
same,GI50,NCI-H460,> 100 µM (inactive)
same,GI50,SF-539,> 100 µM (inactive)
same,GI50,SK-MEL-2,> 100 µM (inactive)
same,GI50,SK-MEL-28,> 100 µM (inactive)
same,GI50,MDA-MB-435,> 100 µM (inactive)
same,GI50,HOP-62,> 100 µM (inactive)
same,GI50,KM12,> 100 µM (inactive)
same,GI50,NCI-H522,> 100 µM (inactive)
same,GI50,HCC 2998,> 100 µM (inactive)
same,GI50,NCI-H226,> 100 µM (inactive)
same,GI50,T47D,> 100 µM (inactive)
same,GI50,Hs-578T,> 100 µM (inactive)
same,GI50,COLO 205,> 100 µM (inactive)
same,GI50,PC-3,> 100 µM (inactive)
same,GI50,TK-10,> 100 µM (inactive)
same,GI50,SK-MEL-5,> 100 µM (inactive)
same,GI50,UACC-257,> 100 µM (inactive)
same,GI50,NCI/ADR-RES,> 100 µM (inactive)
same,GI50,SR,> 100 µM (inactive)
same,GI50,OVCAR-5,> 100 µM (inactive)
same,GI50,SNB-75,> 100 µM (inactive)
same,GI50,SF-295,> 100 µM (inactive)
same,GI50,A498,> 100 µM (inactive)
same,GI50,DU-145,> 100 µM (inactive)
same,GI50,RPMI-8226,> 100 µM (inactive)
same,GI50,SNB-19,> 100 µM (inactive)
same,GI50,HT-29,> 100 µM (inactive)
same,GI50,OVCAR-3,> 100 µM (inactive)
same,GI50,SW-620,> 100 µM (inactive)
same,GI50,IGROV-1,> 100 µM (inactive)
same,GI50,HL-60,> 100 µM (inactive)
same,GI50,ACHN,> 100 µM (inactive)
same,GI50,U-251,> 100 µM (inactive)
same,GI50,Malme-3M,> 100 µM (inactive)
same,GI50,CCRF-CEM,> 100 µM (inactive)
same,GI50,786-0,> 100 µM (inactive)
same,GI50,HOP-92,> 100 µM (inactive)
same,GI50,OVCAR-4,> 100 µM (inactive)
same,GI50,M14,> 100 µM (inactive)
same,GI50,OVCAR-8,> 100 µM (inactive)
same,GI50,NCI-H23,> 100 µM (inactive)
same,GI50,LOX IMVI,> 100 µM (inactive)
same,GI50,HCT-15,> 100 µM
same,GI50,K562,> 100 µM (inactive)
same,GI50,RXF 393,> 100 µM (inactive)
same,GI50,SF-268,> 100 µM (inactive)
same,GI50,CAKI-1,> 100 µM (inactive)
same,GI50,MDA-MB-231,> 100 µM (inactive)
same,GI50,UO-31,> 100 µM (inactive)
same,GI50,EKVX,> 100 µM (inactive)
same,GI50,UACC-62,> 100 µM (inactive)
same,GI50,SK-OV-3,> 100 µM (inactive)
same,GI50,BT-549,> 100 µM (inactive)
same,GI50,HCT-116,> 100 µM (inactive)
same,GI50,MCF7,> 100 µM (inactive)
CCc1nc2c(c(N(C)C)c1C(=O)OC)CCc1ccccc1-2,GI50,SN12C,28.8 µM (inactive)
same,GI50,MDA-N,26.2 µM (inactive)
same,GI50,NCI-H460,30.6 µM (inactive)
same,GI50,SF-539,39.4 µM (inactive)
same,GI50,SK-MEL-2,17.8 µM (inactive)
same,GI50,SK-MEL-28,38.5 µM (inactive)
same,GI50,MDA-MB-435,23.4 µM (inactive)
same,GI50,HOP-62,24.8 µM (inactive)
same,GI50,KM12,30.9 µM (inactive)
same,GI50,NCI-H522,17.9 µM (inactive)
same,GI50,HCC 2998,24.6 µM (inactive)
same,GI50,NCI-H226,21.5 µM (inactive)
same,GI50,T47D,11 µM (inactive)
same,GI50,Hs-578T,51.1 µM (inactive)
same,GI50,COLO 205,18.7 µM (inactive)
same,GI50,PC-3,18 µM (inactive)
same,GI50,TK-10,35.5 µM (inactive)
same,GI50,SK-MEL-5,17 µM (inactive)
same,GI50,UACC-257,26.1 µM (inactive)
same,GI50,NCI/ADR-RES,29.6 µM (inactive)
same,GI50,SR,11.4 µM (inactive)
same,GI50,OVCAR-5,32.2 µM (inactive)
same,GI50,SNB-75,35.4 µM (inactive)
same,GI50,SF-295,17.6 µM (inactive)
same,GI50,A498,20.2 µM (inactive)
same,GI50,DU-145,1.5 µM (inactive)
same,GI50,RPMI-8226,18.7 µM (inactive)
same,GI50,SNB-19,38.4 µM (inactive)
same,GI50,HT-29,27.7 µM (inactive)
same,GI50,OVCAR-3,13.4 µM (inactive)
same,GI50,SW-620,32.8 µM (inactive)
same,GI50,IGROV-1,40.4 µM (inactive)
same,GI50,HL-60,2.86 µM (inactive)
same,GI50,MOLT-4,4.14 µM (inactive)
same,GI50,ACHN,23 µM (inactive)
same,GI50,U-251,30.9 µM (inactive)
same,GI50,Malme-3M,30.5 µM (inactive)
same,GI50,CCRF-CEM,2.45 µM (inactive)
same,GI50,786-0,39.5 µM (inactive)
same,GI50,HOP-92,65.2 µM (inactive)
same,GI50,OVCAR-4,44.8 µM (inactive)
same,GI50,M14,24 µM (inactive)
same,GI50,A549,31 µM (inactive)
same,GI50,OVCAR-8,34.1 µM (inactive)
same,GI50,NCI-H23,34.4 µM (inactive)
same,GI50,LOX IMVI,27.2 µM (inactive)
same,GI50,HCT-15,32.5 µM
same,GI50,K562,20.2 µM (inactive)
same,GI50,RXF 393,31.2 µM (inactive)
same,GI50,SF-268,47.1 µM (inactive)
same,GI50,CAKI-1,51.1 µM (inactive)
same,GI50,MDA-MB-231,23.5 µM (inactive)
same,GI50,UO-31,37.4 µM (inactive)
same,GI50,EKVX,25.9 µM (inactive)
same,GI50,UACC-62,16.9 µM (inactive)
same,GI50,SK-OV-3,13.8 µM (inactive)
same,GI50,BT-549,35 µM (inactive)
same,GI50,HCT-116,24.8 µM (inactive)
same,GI50,MCF7,14.4 µM (inactive)
C=CC(C)CCC(C/C=C(\C)CCCC(C)C)C(=C)CCCC(C)C (centres undefined),GI50,SN12C,> 100 µM (inactive)
same,GI50,MDA-N,> 100 µM (inactive)
same,GI50,NCI-H460,> 100 µM (inactive)
same,GI50,SF-539,> 100 µM (inactive)
same,GI50,SK-MEL-2,> 100 µM (inactive)
same,GI50,SK-MEL-28,> 100 µM (inactive)
same,GI50,MDA-MB-435,> 100 µM (inactive)
same,GI50,HOP-62,> 100 µM (inactive)
same,GI50,KM12,> 100 µM (inactive)
same,GI50,NCI-H522,> 100 µM (inactive)
same,GI50,HCC 2998,> 100 µM (inactive)
same,GI50,NCI-H226,> 100 µM (inactive)
same,GI50,T47D,> 100 µM (inactive)
same,GI50,Hs-578T,> 100 µM (inactive)
same,GI50,COLO 205,> 100 µM (inactive)
same,GI50,PC-3,> 100 µM (inactive)
same,GI50,TK-10,> 100 µM (inactive)
same,GI50,SK-MEL-5,> 100 µM (inactive)
same,GI50,UACC-257,> 100 µM (inactive)
same,GI50,NCI/ADR-RES,> 100 µM (inactive)
same,GI50,SR,> 100 µM (inactive)
same,GI50,OVCAR-5,> 100 µM (inactive)
same,GI50,SNB-75,> 100 µM (inactive)
same,GI50,SF-295,> 100 µM (inactive)
same,GI50,A498,> 100 µM (inactive)
same,GI50,DU-145,> 100 µM (inactive)
same,GI50,RPMI-8226,> 100 µM (inactive)
same,GI50,SNB-19,> 100 µM (inactive)
same,GI50,OVCAR-3,> 100 µM (inactive)
same,GI50,SW-620,> 100 µM (inactive)
same,GI50,IGROV-1,> 100 µM (inactive)
same,GI50,HL-60,> 100 µM (inactive)
same,GI50,MOLT-4,> 100 µM (inactive)
same,GI50,ACHN,> 100 µM (inactive)
same,GI50,U-251,> 100 µM (inactive)
same,GI50,Malme-3M,> 100 µM (inactive)
same,GI50,CCRF-CEM,> 100 µM (inactive)
same,GI50,786-0,> 100 µM (inactive)
same,GI50,HOP-92,> 100 µM (inactive)
same,GI50,OVCAR-4,> 100 µM (inactive)
same,GI50,M14,> 100 µM (inactive)
same,GI50,A549,> 100 µM (inactive)
same,GI50,OVCAR-8,> 100 µM (inactive)
same,GI50,NCI-H23,> 100 µM (inactive)
same,GI50,LOX IMVI,> 100 µM (inactive)
same,GI50,HCT-15,> 100 µM
same,GI50,K562,> 100 µM (inactive)
same,GI50,RXF 393,> 100 µM (inactive)
same,GI50,SF-268,> 100 µM (inactive)
same,GI50,CAKI-1,> 100 µM (inactive)
same,GI50,MDA-MB-231,> 100 µM (inactive)
same,GI50,UO-31,> 100 µM (inactive)
same,GI50,EKVX,> 100 µM (inactive)
same,GI50,UACC-62,> 100 µM (inactive)
same,GI50,SK-OV-3,> 100 µM (inactive)
same,GI50,BT-549,> 100 µM (inactive)
same,GI50,HCT-116,> 100 µM (inactive)
same,GI50,MCF7,> 100 µM (inactive)
